Test results as given in the supplement of paper PMC10307832.

Assays:
Test in all cases: relative viability (nuclei count vs DMSO), 5 days (fraction); higher = more cells survive
Quizartinib + Pemetrexed = compound: CC(C)(C)c1cc(NC(=O)Nc2ccc(-c3cn4c(n3)sc3cc(OCCN5CCOCC5)ccc34)cc2)no1 [Quizartinib] + Nc1nc2[nH]cc(CCc3ccc(C(=O)N[C@@H](CCC(=O)O)C(=O)O)cc3)c2c(=O)[nH]1 [Pemetrexed] (partner 0.2 µM)
In short: (§1)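 The day after seeding in 1536-well plates, lung cancer cell lines were treated by pin tool with a single drug, or with a fixed anchor-drug dose together with five library-drug doses (not always all listed) in √10 steps. After 5 days, a combined fix-and-stain solution (final 0.05% Triton X-100, 1% formaldehyde, 1 ug/ml Hoechst) was added. Nuclei counted on 4× images gave relative viability as treated counts over vehicle counts, reported as the median of duplicate plates.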

Quizartinib + Linsitinib = compound: CC(C)(C)c1cc(NC(=O)Nc2ccc(-c3cn4c(n3)sc3cc(OCCN5CCOCC5)ccc34)cc2)no1 [Quizartinib] + C[C@]1(O)C[C@@H](c2nc(-c3ccc4ccc(-c5ccccc5)nc4c3)c3c(N)nccn32)C1 [Linsitinib] (partner 1 µM)
In short: as §1

YM155 + Lapatinib = compound: COCC[n+]1c2c(n(Cc3cnccn3)c1C)C(=O)c1ccccc1C2=O [YM155] + CS(=O)(=O)CCNCc1ccc(-c2ccc3ncnc(Nc4ccc(OCc5cccc(F)c5)c(Cl)c4)c3c2)o1 [Lapatinib] (partner 2 µM)
In short: as §1

Quizartinib + Dasatinib = compound: CC(C)(C)c1cc(NC(=O)Nc2ccc(-c3cn4c(n3)sc3cc(OCCN5CCOCC5)ccc34)cc2)no1 [Quizartinib] + Cc1nc(Nc2ncc(C(=O)Nc3c(C)cccc3Cl)s2)cc(N2CCN(CCO)CC2)n1 [Dasatinib] (partner 0.075 µM)
In short: as §1

Cell Line | relative viability (Quizartinib + Pemetrexed; first compound 0.001 µM) | relative viability (Quizartinib + Pemetrexed; first compound 0.003162 µM) | relative viability (Quizartinib + Pemetrexed; first compound 0.01 µM) | relative viability (Quizartinib + Pemetrexed; first compound 0.03162 µM) | relative viability (Quizartinib + Pemetrexed; first compound 0.1 µM) | relative viability (Quizartinib + Linsitinib; first compound 0.001 µM) | relative viability (Quizartinib + Linsitinib; first compound 0.003162 µM) | relative viability (Quizartinib + Linsitinib; first compound 0.01 µM) | relative viability (Quizartinib + Linsitinib; first compound 0.03162 µM) | relative viability (Quizartinib + Linsitinib; first compound 0.1 µM) | relative viability (YM155 + Lapatinib; first compound 0.006325 µM) | relative viability (YM155 + Lapatinib; first compound 0.02 µM) | relative viability (YM155 + Lapatinib; first compound 0.06325 µM) | relative viability (Quizartinib + Dasatinib; first compound 0.001 µM) | relative viability (Quizartinib + Dasatinib; first compound 0.003162 µM) | relative viability (Quizartinib + Dasatinib; first compound 0.01 µM) | relative viability (Quizartinib + Dasatinib; first compound 0.03162 µM) | relative viability (Quizartinib + Dasatinib; first compound 0.1 µM) | relative viability (YM155 + Lapatinib; first compound 0.002 µM)
NCI-H1793 | 0.806 | 1.03 | 0.841 | 0.854 | 0.929 | 0.833 | 0.896 | 0.843 | 0.885 | 0.829 | 0.584 | 0.606 | 0.479 | 0.357 | 0.381 | 0.356 | 0.392 | 0.327 | –
NCI-H1915 | 0.49 | 0.47 | 0.552 | 0.477 | 0.488 | 0.761 | 1.03 | 1.11 | 1.08 | 1.15 | 0.946 | 0.918 | 0.784 | 0.344 | 0.329 | 0.262 | 0.303 | 0.324 | 0.968
NCI-H1944 | 0.55 | 0.575 | 0.601 | 0.654 | 0.583 | 0.865 | 1.16 | 1.12 | 1.39 | 1.24 | 0.724 | 0.767 | 0.82 | 0.214 | 0.217 | 0.204 | 0.199 | 0.224 | 0.842
NCI-H1975 | 0.283 | 0.306 | 0.316 | 0.295 | 0.294 | 0.964 | 0.85 | 0.956 | 1 | 1.17 | 0.774 | 0.856 | 0.175 | 0.415 | 0.305 | 0.367 | 0.297 | 0.325 | 0.701
NCI-H1993 | 0.55 | 0.566 | 0.567 | 0.67 | 0.59 | 0.739 | 0.716 | 0.817 | 0.757 | 0.833 | 0.736 | 0.682 | 0.757 | 0.636 | 0.478 | 0.58 | 0.644 | 0.662 | 0.81
NCI-H2009 | 0.946 | 0.932 | 1.05 | 1.02 | 1.07 | 0.917 | 1.13 | 1.24 | 1.01 | 1.18 | 0.893 | 0.946 | 0.119 | 0.283 | 0.29 | 0.252 | 0.326 | 0.26 | 0.888
NCI-H2023 | 0.209 | 0.215 | 0.295 | – | 0.244 | 0.556 | 0.585 | 0.564 | 0.454 | 0.574 | 0.827 | 0.867 | 0.49 | 0.428 | 0.507 | 0.634 | – | 0.613 | 0.884
NCI-H2085 | 0.82 | 0.879 | 0.97 | 0.836 | 0.833 | 0.866 | 0.844 | 0.973 | 0.907 | 0.948 | 0.752 | 0.614 | 0.315 | 0.282 | 0.237 | 0.253 | 0.231 | 0.236 | 0.746
NCI-H2087 | 0.66 | 0.536 | 0.71 | 0.661 | 0.651 | 0.857 | 0.98 | 1.06 | 0.935 | 0.705 | 1.01 | 1.12 | 0.708 | – | 0.699 | 0.863 | 0.626 | 0.979 | 1.26
NCI-H2126 | 0.682 | 0.658 | 0.765 | 0.663 | 0.689 | 0.712 | 0.705 | 0.735 | 0.767 | 0.835 | 0.788 | 0.726 | 0.783 | 0.454 | 0.603 | 0.655 | – | 0.625 | 0.768
NCI-H2228 | 0.288 | 0.311 | 0.355 | 0.316 | 0.317 | 0.736 | 0.699 | 0.808 | 0.534 | 0.624 | 1.16 | 0.988 | 0.998 | 0.608 | 0.413 | 0.597 | 0.494 | 0.509 | 0.856
NCI-H2347 | 0.426 | 0.382 | 0.45 | 0.443 | 0.456 | 0.943 | 0.956 | 0.969 | 0.908 | 1.07 | 0.914 | 0.997 | 0.598 | 0.3 | 0.298 | 0.296 | 0.376 | 0.304 | 0.917
NCI-H2405 | 0.961 | 1.04 | 1.02 | 1.08 | 1.15 | 0.85 | 0.883 | 0.927 | 0.909 | 1.09 | 0.816 | 0.786 | 0.34 | 0.266 | 0.198 | 0.216 | 0.202 | 0.244 | 1.03
NCI-H3122 | 0.185 | 0.201 | 0.193 | 0.2 | 0.211 | 1.04 | 1.03 | 1.1 | 1.05 | 0.964 | 0.997 | 1.01 | 1.08 | 0.92 | 0.565 | 1 | 0.721 | 0.838 | 1
PC-3 [JPC-3] | 0.845 | 1.12 | 0.852 | 1 | 1.17 | 0.853 | 0.951 | 0.931 | 0.988 | 0.933 | 0.455 | 0.437 | 0.455 | 0.925 | 0.967 | 1.09 | 1.01 | 1.03 | 0.455
PC-14 | 0.134 | 0.143 | 0.13 | – | 0.162 | 0.922 | 0.875 | 0.942 | 0.986 | 0.99 | 0.295 | 0.297 | 0.355 | 0.262 | 0.238 | 0.321 | – | 0.254 | 0.306
RERF-LC-KJ | 0.458 | 0.493 | 0.48 | 0.457 | 0.492 | 0.79 | 0.878 | 0.941 | 0.843 | 0.92 | 0.853 | 0.88 | 0.821 | 0.765 | 0.755 | 0.794 | 0.414 | 0.681 | 0.755
